The values that follow come from US5494936A, “Delivery formulation for probucol” (priority 1994, dated 1996).

One data set deals with HIV. To be noted: cited from earlier work.
The nature of a further data set: Solubility of probucol. The format is physicochemical. To be noted: formulation A; 10% probucol; ethanol not required to prevent precipitation. As for the experimental part:
The ethanol was added as a cosolvent to prevent precipitation of probucol from the peanut oil in formulations B & C.

For data set [1] the following is noted: cited from earlier work.

SMILES strings stand for the structures. Read-outs that look alike come from different tables or passages of the source.

For `Cc1cn([C@H]2C[C@H](N=[N+]=[N-])[C@@H](CO)O2)c(=O)[nH]c1=O` [AZT], the death rate with HIV (after one year, 159 patients, estimated average CD4+ count 189) is on record as 15%.

Take `CC(C)(Sc1cc(C(C)(C)C)c(O)c(C(C)(C)C)c1)Sc1cc(C(C)(C)C)c(O)c(C(C)(C)C)c1` [Probucol, bis(3,5-di-tert-butyl-4-hydroxyphenyl) acetone mercaptole]: the “solubility in medium chain triglycerides” value in the data set “Solubility of probucol” was “sufficiently soluble in medium chain triglycerides”. Also, the water solubility entry in data set [1] is listed as “water-insoluble”; in data set [1] (listed as probucol), “substantially water insoluble”.

As to `Nc1ccn([C@H]2CC[C@@H](CO)O2)c(=O)n1` [ddC], in the data set with HIV (after 12 months, 20 patients, average CD4+ count on entry 154), the death rate was 25%.
